Experimental data taken from patent US20110092469A1, “Quinone derivative 2,3-dimethoxy-5-methyl-6-(10-hydroxydecyl)-1,4-benzoquinone for the treatment of respiratory illness in muscular dystrophy” (SANTHERA PHARMACEUTICALS (SCHWEIZ) AG, priority 2008, published 2011).

Test system: Duchenne Muscular Dystrophy (DMD) patients
Assay: Double-blind, placebo-controlled, randomised clinical trial: pulmonary function testing in DMD patients
Format: in vivo, human
Procedure: Efficacy of idebenone on respiratory parameters in Duchenne Muscular Dystrophy (DMD) patients was assessed in a double-blind, placebo-controlled, randomised parallel group, clinical trial conducted in one singe clinical center. DMD patients at age 8 to 16 years were treated with idebenone or placebo over a period of 52 weeks. After written informed consent was obtained from the patient and the patient's parent/legal guardian, patients who met the protocol eligibility criteria were enrolled at the study centre and randomised to daily treatment of idebenone (150 mg, 3× daily; total daily dose of 450 mg) or placebo (3× daily). Efficacy was assessed at baseline and at weeks 26 and 52.
A total of 21 patients were enrolled, 13 patients were randomised to treatment with idebenone and 8 randomised to treatment with placebo.
Idebenone was formulated as a round biconvex shaped, film-coated orange tablet, with a 10 mm diameter, containing 150 mg of idebenone and Lactose Monohydrate, Microcrystalline Cellulose, Croscarmellose Sodium, Povidone (Plasdone® K25), Magnesium Stearate and Silicon Dioxide as excipients. The tablet is manufactured by a wet granulation process performed with a high-shear granulator, followed by compression on a rotary tabletting machine and film-coating of the cores in a perforated pan coater. The composition of the placebo is based on the composition of the 150 mg film-coated tablet. The drug substance and the excipients have been replaced by a mixture of lactose monohydrate and microcrystalline cellulose. The composition of the coating remained constant. Placebo tablets are manufactured by direct compression, followed by film-coating.
Both idebenone (150 mg) and matching placebo were administered as an oral tablet. Patients were to take 1 tablet, 3 times a day with meals, for 12 months (52 weeks).
Pulmonary function testing was performed by one clinical evaluator (physical therapist) with longstanding expertise in the assessment of children with neuromuscular diseases, using state of the art equipment and methods. Testing was done with the patient sitting, with a standardized order of testing. Lung volumes (FVC, FEV1) were measured using a handheld Koko spirometer (PDS Instrumentation, Louisville, USA).
Maximum inspiratory (MIP) and expiratory (MEP) pressures were measured using a Magnehelic® manometer (Dwyer Instrument, Michigan City Ind., USA) connected to a mouthpiece. Peak expiratory flow (PEF) measurements were performed using a portable peak flow meter (Mini-Wright peak flow meter, Clement Clarke International). For all parameters the highest values from three consecutive recordings were used in compliance with criteria published by the American Thoracic Society (ATS) (American Thoracic Society. Am J Respir Crit Care Med 1994; 152:1107-1136).
Pulmonary function testing included the following parameters: • Forced vital capacity (FVC) [L] • Forced vital capacity % predicted • Forced expiratory volume in 1 second (FEV1) [L] • FEV1 (% predicted) • Peak expiratory flow (PEF) [L/min] • Peak expiratory flow (% predicted) • Maximal Inspiratory Pressure (MIP) [cmH2O] • Maximal Inspiratory Pressure (% predicted)
For peak expiratory flow conversion from measured values (in Liter) to ‘% predicted’ was performed by the following equation: […]
“peak expiratory flow−422.8+5.288×height”[height in cm]
For maximal inspiratory pressure (MIP) conversion from measured values (in cm H2O) to ‘% predicted’ was performed by the following equation: […]
“MIP−27.020−(4.132×age)−(0.003×height×weight)”[age: years; height: cm body height; weight: kg]
Efficacy of idebenone was determined for the parameters listed above as changes between baseline and end of treatment (at week 52) and comparisons were made between idebenone treated and placebo treated subjects.

[1] = DMD patients, idebenone 450 mg/day oral, N = 13, week 52, mean ± SD

COC1=C(OC)C(=O)C(CCCCCCCCCCO)=C(C)C1=O [Idebenone, 2,3-dimethoxy-5-methyl-6-(10-hydroxydecyl)-1,4-benzoquinone]
FVC (forced vital capacity), Week 52 (DMD patients 8-16 years, idebenone 150 mg 3x daily oral, N = 13, week 52 (end of treatment), mean ± SD): 2.33 ± 0.67 L
MIP expressed as percent of the predicted value, increase over 52 weeks (DMD patients on idebenone, 52 week treatment period): 4.8±13.0%
Peak expiratory flow at week 52 compared to baseline (in words) (DMD patients on idebenone, difference in change vs placebo statistically significant): higher at week 52 compared to baseline
Maximum inspiratory pressure (MIP) over the 52 week treatment period (in words) (DMD patients on idebenone, expressed as more negative number, change clearly different from placebo): increased
MIP, Change Week 52-BL (DMD patients, idebenone 450 mg/day oral, N = 13, change baseline to week 52, mean ± SD, more negative = larger inspiratory force, p 0.173 vs placebo (one-sided)): −7.33 ± 13.0 cmH2O
Peak expiratory flow, Change Week 52-BL (DMD patients, idebenone 450 mg/day oral, N = 13, change baseline to week 52, mean ± SD, p 0.039 vs placebo (one-sided)): 30.8 ± 54.4 L/min
Peak expiratory flow % predicted, Change Week 52-BL (DMD patients, idebenone 450 mg/day oral, N = 13, change baseline to week 52, mean ± SD, p 0.042 vs placebo (one-sided)): 2.8 ± 13.8 % predicted
MIP % predicted, Change Week 52-BL (DMD patients, idebenone 450 mg/day oral, N = 13, change baseline to week 52, mean ± SD, p 0.142 vs placebo (one-sided)): 4.8 ± 13.0 % predicted
FVC, Change Week 52-BL (DMD patients, idebenone 450 mg/day oral, N = 13, change baseline to week 52, mean ± SD, p 0.471 vs placebo (one-sided)): 0.14 ± 0.31 L
FEV1, Change Week 52-BL (DMD patients, idebenone 450 mg/day oral, N = 13, change baseline to week 52, mean ± SD, p 0.484 vs placebo (one-sided)): 0.11 ± 0.37 L
FEV1 % predicted, Change Week 52-BL (DMD patients, idebenone 450 mg/day oral, N = 13, change baseline to week 52, mean ± SD, p 0.651 vs placebo (one-sided)): −2.0 ± 9.2 % predicted
FVC % predicted, Change Week 52-BL (DMD patients, idebenone 450 mg/day oral, N = 13, change baseline to week 52, mean ± SD, p 0.793 vs placebo (one-sided)): −1.2 ± 6.4 % predicted
FEV1 % predicted, Week 52 [1]: 74.5 ± 23.88 % predicted
FEV1 (forced expiratory volume 1 second), Week 52 [1]: 2.08 ± 0.71 L
FVC % predicted, Week 52 [1]: 75.3 ± 24.79 % predicted
MIP % predicted, Week 52 [1]: 44.1 ± 13.38 % predicted
MIP (maximal inspiratory pressure), Week 52 [1]: −47.3 ± 14.09 cmH2O
Peak expiratory flow % predicted, Week 52 [1]: 76.9 ± 20.13 % predicted
Peak expiratory flow, Week 52 [1]: 292.3 ± 90.6 L/min
Changes in FVC, FVC % predicted, FEV1 and FEV1 % predicted versus placebo (in words) (DMD patients, idebenone treatment 52 weeks): not different from placebo treatment
